Like-named read-outs stand apart in the source and are kept apart here. Non-standard residues stand in square brackets, D forms with d. Residues, ends and D or L forms follow the SMILES beside them.
Legend:
[1] = system: S. aureus (MRSA) ATCC 33591; format: cell-based, Staphylococcus aureus; details: Table 9
Summary of the method: (§1)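 Broth microdilution (macrodilution in some cases) per NCCLS M7-A4; peptides 2-fold serially diluted in 5% DMSO/9% sucrose, ~400-2 μg/ml before dilution into broth; inoculum ~2.5×10^5 cfu/ml from overnight culture diluted 4000×.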

murine red blood cells = experiment: Red blood cell hemolysis; format: cell-based, mouse
Description: Selectivity of cyclic peptides for bacterial over mammalian cells was evaluated by measuring red blood cell hemolytic activities as described in Tosteson, M. T. Holmes, S. J., Razin, M. and Tosteson, D. C. Melittin Lysis of Red Cells, J. Membrane Biol. 87, 35-44(1985). Heparinized murine blood was centrifuged at 1000×g for 10 minutes. The supernatant and the buffy coat were removed. Erythrocytes were washed three times with 0.9% saline solution and then resuspended to a concentration of 5% in saline containing 10% FBS (v/v). Red blood cells were then treated with serial dilutions of test peptides in a 96 well plate at 37° C. for 30 minutes. Control samples included a saline solution arid 1% Triton X-100 as 0 and 100% hemolysis, respectively. In some cases, mellitin was used as a further control. Mellitin is a linear peptide that is hemolytic against mammalian red blood cells in vitro at a concentration of about 10 μg/ml. Plates were centrifuged at 1000 g for 10 minutes. Aliquots of the supernatant were diluted 2 times with saline solution and the absorbance was measured at 560 nm.

[2] = system: vancomycin-resistant Enterococus faecalis (VRE)(ATCC 51575); format: cell-based, Enterococcus faecalis; set-up: key to VRE (in vitro activity): peptide concentration in μg/ml (broth dilution assay); details: Table 9
Summary of the method: as §1

[3] = media b: cation adjusted Meuller Hinton broth (MHBII)
[4] = media c: Brain Heart Infusion (BHI)
[5] = media a: anti-microbial media-3 (AM-3)

Compound	MRSA (in vitro activity) [1, 3]	RBC Hemolysis (HD50) (murine red blood cells)	VRE (in vitro activity) ([2]; media b: MHBII)	VRE (in vitro activity) [2, 4]	MRSA (in vitro activity) [1, 5]	VRE (in vitro activity) ([2]; media a: AM-3)
CC(C)C[C@@H]1NC(=O)[C@@H](CCCNC(=N)N)NC(=O)[C@H](CCC(N)=O)NC(=O)[C@@H](CCCNC(=N)N)NC(=O)[C@H](Cc2c[nH]c3ccccc23)NC(=O)[C@@H](Cc2c[nH]c3ccccc23)NC(=O)[C@H](CC(C)C)NC(=O)[C@@H](Cc2c[nH]c3ccccc23)NC1=O [SEQ ID NO:69, [QRLWLWWR]] (cyclo(Q[dR]L[dW]L[dW]W[dR]))	6.3	35	6.3			
CC(C)C[C@@H]1NC(=O)[C@@H](Cc2c[nH]c3ccccc23)NC(=O)[C@H](C(C)C)NC(=O)[C@@H](CCCNC(=N)N)NC(=O)[C@H](CCC(N)=O)NC(=O)[C@@H](CCCNC(=N)N)NC(=O)[C@H](Cc2c[nH]c3ccccc23)NC(=O)[C@@H](Cc2c[nH]c3ccccc23)NC1=O [SEQ ID NO:70, [QRVWLWWR]] (cyclo(Q[dR]V[dW]L[dW]W[dR]))	12.5	30	6.3			
CC(C)C[C@@H]1NC(=O)[C@@H](Cc2c[nH]c3ccccc23)NC(=O)[C@H](Cc2c[nH]c3ccccc23)NC(=O)[C@@H](CCCNC(=N)N)NC(=O)[C@H](CCC(N)=O)NC(=O)[C@@H](CCCNC(=N)N)NC(=O)[C@H](Cc2c[nH]c3ccccc23)NC(=O)[C@@H](Cc2c[nH]c3ccccc23)NC1=O [SEQ ID NO:71, [QRWWLWWR]] (cyclo(Q[dR]W[dW]L[dW]W[dR]))	6.3	35	6.3			
CC(C)C[C@H]1NC(=O)[C@H](Cc2ccccc2)NC(=O)[C@@H](Cc2c[nH]cn2)NC(=O)[C@H](CCCCN)NC(=O)[C@@H](Cc2c[nH]cn2)NC(=O)[C@H](CCCCN)NC(=O)[C@@H](CC(C)C)NC(=O)[C@H](Cc2c[nH]c3ccccc23)NC1=O [SEQ ID NO:72, [KHKHFLWL]] (cyclo(K[dH]K[dH]F[dL]W[dL]))	8	200		16		
CC(C)C[C@H]1NC(=O)[C@H](Cc2c[nH]c3ccccc23)NC(=O)[C@@H](Cc2c[nH]cn2)NC(=O)[C@H](CCCCN)NC(=O)[C@@H](Cc2c[nH]cn2)NC(=O)[C@H](CCCCN)NC(=O)[C@@H](CC(C)C)NC(=O)[C@H](Cc2c[nH]c3ccccc23)NC1=O [SEQ ID NO:73, [KHKHWLWL]] (cyclo(K[dH]K[dH]W[dL]W[dL]))	18	150		18		
CC(C)C[C@H]1NC(=O)[C@H](Cc2c[nH]c3ccccc23)NC(=O)[C@@H](CCCNC(=N)N)NC(=O)[C@H](CCCCN)NC(=O)[C@@H](Cc2c[nH]cn2)NC(=O)[C@H](CCCCN)NC(=O)[C@@H](CC(C)C)NC(=O)[C@H](Cc2c[nH]c3ccccc23)NC1=O [SEQ ID NO:74, [KRWLWLKH]] (cyclo(K[dR]W[dL]W[dL]K[dH]))		>130			5	7
CC(C)C[C@H]1NC(=O)[C@H](Cc2c[nH]c3ccccc23)NC(=O)[C@@H](CCCNC(=N)N)NC(=O)[C@H](CCCCN)NC(=O)[C@@H](CO)NC(=O)[C@H](CCCCN)NC(=O)[C@@H](CC(C)C)NC(=O)[C@H](Cc2c[nH]c3ccccc23)NC1=O [SEQ ID NO:75, [KRWLWLKS]] (cyclo(K[dR]W[dL]W[dL]K[dS]))		>48			9	22
CC(C)C[C@H]1NC(=O)[C@H](Cc2ccccc2)NC(=O)[C@@H](CCCCN)NC(=O)[C@H](CCCCN)NC(=O)[C@@H](CO)NC(=O)[C@H](CCCCN)NC(=O)[C@@H](CC(C)C)NC(=O)[C@H](Cc2ccccc2)NC1=O [SEQ ID NO:76, [KSKKFLFL]] (cyclo(K[dS]K[dK]F[dL]F[dL]))	5	100		10		
CC(C)C[C@H]1NC(=O)[C@H](Cc2c[nH]c3ccccc23)NC(=O)[C@@H](CCCCN)NC(=O)[C@H](CCCCN)NC(=O)[C@@H](CO)NC(=O)[C@H](CCCCN)NC(=O)[C@@H](CC(C)C)NC(=O)[C@H](Cc2c[nH]c3ccccc23)NC1=O [SEQ ID NO:77, [KSKKWLWL]] (cyclo(K[dS]K[dK]W[dL]W[dL]))	13	>220		27		
CC(C)C[C@H]1NC(=O)[C@H](C)NC(=O)[C@@H](CCCCN)NC(=O)[C@H](CO)NC(=O)[C@@H](CO)NC(=O)[C@H](CCCCN)NC(=O)[C@@H](CC(C)C)NC(=O)[C@H](C)NC1=O [SEQ ID NO:78, [KSSKALAL]] (cyclo(K[dS]S[dK]A[dL]A[dL]))	>240	>240		>240		
CC(C)C[C@H]1NC(=O)[C@H](Cc2ccccc2)NC(=O)[C@@H](CCCCN)NC(=O)[C@H](CO)NC(=O)[C@@H](CO)NC(=O)[C@H](CCCCN)NC(=O)[C@@H](CC(C)C)NC(=O)[C@H](Cc2ccccc2)NC1=O [SEQ ID NO:79, [KSSKFLFL]] (cyclo(K[dS]S[dK]F[dL]F[dL]))	43	>200		43		
CC(C)C[C@H]1NC(=O)[C@H](C(C)C)NC(=O)[C@@H](CC(C)C)NC(=O)[C@H](C(C)C)NC(=O)[C@@H](CCCCN)NC(=O)[C@H](CO)NC(=O)[C@@H](CO)NC(=O)[C@H](CCCCN)NC1=O [SEQ ID NO:80, [KSSKVLVL]] (cyclo(K[dS]S[dK]V[dL]V[dL]))	22	>180		180		
CC(C)C[C@H]1NC(=O)[C@H](Cc2c[nH]c3ccccc23)NC(=O)[C@@H](CCCCN)NC(=O)[C@H](CO)NC(=O)[C@@H](CO)NC(=O)[C@H](CCCCN)NC(=O)[C@@H](CC(C)C)NC(=O)[C@H](Cc2c[nH]c3ccccc23)NC1=O [SEQ ID NO:82, [KSSKWLWL]] (cyclo(K[dS]S[dK]W[dL]W[dL]))	27	>220		27		
CC(C)C[C@H]1NC(=O)[C@H](Cc2ccc(O)cc2)NC(=O)[C@@H](CCCCN)NC(=O)[C@H](CO)NC(=O)[C@@H](CO)NC(=O)[C@H](CCCCN)NC(=O)[C@@H](CC(C)C)NC(=O)[C@H](Cc2ccc(O)cc2)NC1=O [SEQ ID NO:83, [KSSKYLYL]] (cyclo(K[dS]S[dK]Y[dL]Y[dL]))	85	>340		170		
CC(C)C[C@H]1NC(=O)[C@H](Cc2c[nH]c3ccccc23)NC(=O)[C@@H](CO)NC(=O)[C@H](CCCCN)NC(=O)[C@@H](CO)NC(=O)[C@H](CCCNC(=N)N)NC(=O)[C@@H](CC(C)C)NC(=O)[C@H](Cc2c[nH]c3ccccc23)NC1=O [SEQ ID NO:84, [KSWLWLRS]] (cyclo(K[dS]W[dL]W[dL]R[dS]))		>62			9	12
CC(C)C[C@@H]1NC(=O)[C@@H](Cc2c[nH]c3ccccc23)NC(=O)[C@H](CCCCN)NC(=O)[C@@H](Cc2c[nH]cn2)NC(=O)[C@H](CCCCN)NC(=O)[C@@H](Cc2c[nH]cn2)NC(=O)[C@H](CCCCN)NC(=O)[C@@H](Cc2c[nH]c3ccccc23)NC1=O [SEQ ID NO:85, [KHKHKWLW]] (cyclo(K[dH]K[dH]K[dW]L[dW]))	6	150		6		
CC(C)C[C@H]1NC(=O)[C@H](CCCCN)NC(=O)[C@@H](Cc2c[nH]cn2)NC(=O)[C@H](CCC(N)=O)NC(=O)[C@@H](Cc2c[nH]cn2)NC(=O)[C@H](CCCCN)NC(=O)[C@@H](CC(C)C)NC(=O)[C@H](Cc2c[nH]c3ccccc23)NC1=O [SEQ ID NO:86, [KHQHKLWL]] (cyclo(K[dH]Q[dH]K[dL]W[dL]))	100	>200		100		
CC(C)C[C@@H]1NC(=O)[C@@H](Cc2c[nH]c3ccccc23)NC(=O)[C@H](CCCCN)NC(=O)[C@@H](Cc2c[nH]cn2)NC(=O)[C@H](CCC(N)=O)NC(=O)[C@@H](Cc2c[nH]cn2)NC(=O)[C@H](CCCCN)NC(=O)[C@@H](Cc2c[nH]c3ccccc23)NC1=O [SEQ ID NO:87, [KHQHKWLW]] (cyclo(K[dH]Q[dH]K[dW]L[dW]))	6	200		12		
CC(C)C[C@@H]1NC(=O)[C@@H](Cc2c[nH]c3ccccc23)NC(=O)[C@H](CCCCN)NC(=O)[C@@H](Cc2c[nH]cn2)NC(=O)[C@H](CO)NC(=O)[C@@H](Cc2c[nH]cn2)NC(=O)[C@H](CCCCN)NC(=O)[C@@H](Cc2c[nH]c3ccccc23)NC1=O [SEQ ID NO:88, [KHSHKWLW]] (cyclo([dW]L[dW]K[dH]S[dH]K))	6	200		6		
NCCCC[C@@H]1NC(=O)[C@@H](Cc2ccccc2)NC(=O)[C@H](Cc2c[nH]c3ccccc23)NC(=O)[C@@H](Cc2ccccc2)NC(=O)[C@H](CCCCN)NC(=O)[C@@H](CC(N)=O)NC(=O)[C@H](CCC(N)=O)NC(=O)[C@@H](CC(N)=O)NC1=O [SEQ ID NO:89, [KNQNKFWF]] (cyclo(K[dN]Q[dN]K[dF]W[dF]))	17	280		70		

From patent US20050107289A1, “Anti-microbial peptides and compositions” (priority 2001, published 2005)
